Laboratory results as given in patent US10668039B2, “Methods for treatment of adenoid cystic carcinoma” (THE CHILDREN'S MEDICAL CENTER CORPORATION, priority 2016, dated 2020).

Assays:
[1] = test system: ACC patient derived xenografts; assay: ACC xenotransplantation trials, average across ACCx6, ACCx9 and ACCx11; format: in vivo, nude mice; parameters: concentration or dose not given beside the values; conditions: average of ACCx6, ACCx9, ACCx11
Protocol: Xenograft experiments: To generate ACC xenografts, 1×10^6 viable ACC cells were injected into the flank of female nude (Foxn1nu) mice for in vivo drug testing of ACCx6, ACCx9, and ACCx11 lines. Once tumors were visible, the mice were randomized to receive vehicle control or drug until reaching a […] tumor volume of 1,000 mm3. The mice in each group were treated with an oral flat dose five times weekly (po qdx5) for four cycles (two days off between cycles). The exact dosing was determined based on an initial MTD tolerability study and published literature reports. Five mice per group were treated for ACCx6 and ACCx9, and four mice per group were treated for ACCx11 (five mice in the control ACCx11 group), and the tumor volumes were quantified. Mice were treated with a flat dose of 0.2 mL orally of: 30 mg/mL isotretinoin; 40 mg/mL fenretinide; 4 mg/mL ATRA for ACCx6 and ACCx11 or 3 mg/mL ATRA for ACCx9. Mouse procedures used in this study were approved by the IACUC at South Texas Accelerated Research Therapeutics (San Antonio, Tex.).
Primagraft experiments: For in vivo drug testing, ACC tumor fragments from host animals were implanted subcutaneously into the flank of nude mice (CRL: ATH/NU). Once tumors reached 125-250 mm3, mice were randomized to receive vehicle or drug diluted in 10:90 DMSO:10% hydroxypropyl-beta-cyclodextrin orally until controls reached a tumor volume endpoint of 1-2 cm3 (4-9 mice per group: x5M1 and x6, 4 treated vs. 9 vehicle controls; x9, 4 treated vs. 5 vehicle controls; x11, 5 treated vs. 8 vehicle controls). Mice were treated with ATRA (ACC x6 and x11: 4 mg/mL, 0.2 mL flat dose; ACC×9: 3 mg/mL, 0.2 mL flat dose) or isotretinoin (30 mg/mL, 0.2 mL flat dose). Tumor growth was monitored and mice weighed twice weekly and studies ended when final group reached tumor volume endpoint. No statistical methods were employed to determine the sample size, and no blinding of investigators was performed. After long-term tumor growth inhibition studies were completed, the ATRA treated mice stopped receiving treatment and were maintained longer as indicated to monitor tumor maintenance after treatment cessation. For long-term tumor growth inhibition studies, ACC x6, x9, and x11 models were used and primagrafts collected at the completion of the study. Short-term kinetics studies were also undertaken with ACC x9 and x5M1 primagrafts involving 3 day ATRA treatments. All animal procedures used in this study were approved by the IACUC at START, San Antonio, Tex.

[2] = test system: c-myb:GFP; assay: c-myb:GFP zebrafish blastomere embryo culture chemical screen; format: cell-based; conditions: approximately 30 μM, 2 days
Protocol: The inventors have developed an embryo culture system in which embryos bearing a c-myb:GFP transgenic reporter were dissociated during sphere stage at 4 hours post fertilization (hpf), and cultured in gelatin-coated 384 well plates with chemicals for 2 days until imaging for fluorescent reporter activity (FIG. 1). This fluorescent transgene is expressed in a similar pattern to the endogenous gene. […] This transgene responds to inducers of hematopoiesis, as myb is a marker of hematopoietic stem cells (HSCs).
The image analysis software (ImageJ and MatLab) was used to identify hits that downregulate c-myb:GFP zebrafish embryo cultures by a z-score less than […] and more than 70% downregulation. Hits were assessed by eye and scored for morphology. Toxic compounds that caused poor embryoid body (EB) formation were assessed a 4.
Zebrafish cell culture: Zebrafish embryo cultures were adapted from Xu (2013). Dissociated blastomere cells were grown in medium composed of 85% LDF medium, 5% heat inactivated FBS, and 10% zebrafish day 1 embryo extract. LDF medium contains 50% Leibowitz's L-15 (Invitrogen), 20% DMEM (Invitrogen), and 30% DMEM/F-12 (Invitrogen), supplemented with 0.018% sodium bicarbonate, 15 mM HEPES (Invitrogen), 1% L-Glutamine (Invitrogen), 10 nM sodium selenite (Sigma-Aldrich), 1% N2 (Invitrogen), 2% B27 (Invitrogen), 1% Penicillin-Streptomycin (Invitrogen), and 0.2% Primocin (InvivoGen).
Screening procedures: Two 384-well plates were coated with 0.1% gelatin for each chemical library plate. Males of the c-myb:GFP transgenic line were set up overnight with casper females and kept separated until morning when they were mixed for mating. Embryos were washed twice with E3 embryo water and treated with pronase to remove chorions. Dechorionated embryos were washed with E3 embryo water and collected into tubes containing media. Embryos were disassociated by shaking ˜10 times and were filtered through a 40 μm nylon mesh filter. Resulting single cells were diluted with medium and aliquoted 30 μl per well into the 384-well plates at approximately 2 embryo equivalents per well. Chemicals were dispensed immediately afterwards with an Agilent Bravo robot. Chemicals from the libraries were diluted 300 times with LDF medium and were aliquoted 10 μl per well for a final concentration of approximately 33 μM. […] Cells were cultured in a 28° C. incubator with 5% CO2. Two days later, cells were imaged by a Yokogawa Cell Voyager 7000 imager. Images were analyzed by ImageJ and MatLab and confirmed by eye. […]
Culture of dissociated blastomere cells: Stage-matched zebrafish blastomeres were dissociated at 4 hpf and grown in medium composed of 85% LDF medium, 5% FBS, and 10% embryo extract. LDF medium contains 50% Leibowitz's L-15 (Invitrogen), 20% DMEM (Invitrogen), and 30% DMEM/F-12 (Invitrogen), supplemented with 2% B27 (Gibco), 15 mM HEPES (Gibco), 1% L-glutamine (Gibco), 1% N2 (Gibco), 10 nM sodium selenite (Sigma), 100 ug/mL piperacillin (Sigma), 10 ug/mL ciprofloxacin (GenHunter), and 0.018% sodium bicarbonate (Gibco). Embryo extract was made by homogenizing 24 hpf wildtype AB embryos in HBSS (Gibco).

[3] = Table 2, c-myb:GFP embryo cultures, average across two plates
[4] = Table 3, GFP signal in blastomere embryo culture screen

| Structure (SMILES) | Average tumor growth inhibition across the three models [1] | Average tumor growth inhibition across the three models ([1]; listed as isotretinoin) | Z-Score [2, 3] | Z-Score [2, 4] | Average tumor growth inhibition across the three models ([1]; listed as all-trans retinoic acid (ATRA)) | Average tumor growth inhibition across the three models ([1]; listed as fenretinide) |
| --- | --- | --- | --- | --- | --- | --- |
| CC1=C(/C=C/C(C)=C/C=C/C(C)=C\C(=O)O)C(C)(C)CCC1 [Isotretinoin, 13-cis-retinoic acid] | 86% | 86% | −5.054 | −5.054 |  |  |
| CC(C=CC1=C(C)CCCC1(C)C)=CC=C/C(C)=C/C(=O)O [ATRA, (E)-3,7-dimethyl-9-(2,6,6-trimethyl-1-cyclo-hexen-1-yl)-2,4,6,8-nonatetraenoic acid] | 88% |  | −5.729 | −5.729 | 88% |  |
| CC1=C(/C=C/C(C)=C/C=C/C(C)=C/C(=O)Nc2ccc(O)cc2)C(C)(C)CCC1 [Fenretinide, retinoic acid p-hydroxyanilide] | 53% |  | −1.582 | −1.582 |  | 53% |
